Patent US11331364B2, “Use for JNK inhibitor molecules for treatment of various diseases” (Xigen Inflammation Ltd., priority 2014, dated 2022)
Square brackets hold non-standard residues; d marks the D form. Peptide text beside a SMILES is read from it.

Tests used:
hJNK1 = target: T1, hJNK1 (Homo sapiens, UniProt P45983); assay: hJNK1 | IC50; conditions: read-out: hJNK1 | IC50
T1 construct: His; purchased Upstate 14-327
Description: (§1) Table printed on a drawing sheet, Fig. 4
Head of the field: hJNK1 | IC50
(§2) The patent's description of the figure: FIG. 4: Table illustrating the inhibitory efficacy of several JNK inhibitors according to the present invention, which are fusion proteins of a JNK inhibitory (poly-)peptide sequence and a transporter sequence. Given are the IC50 values in the nM range, the respective standard error of the mean (SEM) and the number of experiments performed (n).
(§3) First copying reader's note: The sheet prints no unit for IC50 (the description says nM range); decimal commas are used, except for three IC50 cells printed with a point (3820.81, 5340.33, 8130.86).
Where the first naming reader finds the target: head: hJNK1 | IC50

hJNK2 = hJNK2 (Homo sapiens, UniProt P45984); assay: hJNK2 | IC50; conditions: read-out: hJNK2 | IC50
hJNK2, sequence (P45984 whole entry, looked up): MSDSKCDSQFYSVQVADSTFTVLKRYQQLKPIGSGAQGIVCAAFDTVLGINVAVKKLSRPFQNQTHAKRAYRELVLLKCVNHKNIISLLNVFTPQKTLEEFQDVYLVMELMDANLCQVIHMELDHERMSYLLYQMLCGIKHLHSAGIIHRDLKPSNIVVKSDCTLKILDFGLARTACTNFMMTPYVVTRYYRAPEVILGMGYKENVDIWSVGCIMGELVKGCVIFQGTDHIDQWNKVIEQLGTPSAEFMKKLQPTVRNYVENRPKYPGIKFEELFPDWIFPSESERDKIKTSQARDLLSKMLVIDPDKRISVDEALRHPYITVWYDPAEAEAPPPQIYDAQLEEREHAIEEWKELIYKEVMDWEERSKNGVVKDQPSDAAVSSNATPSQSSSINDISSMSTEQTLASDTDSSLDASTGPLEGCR
Description: as §1
Head of the field: hJNK2 | IC50
as §2, §3
Where the first naming reader finds the target: head: hJNK2 | IC50

hJNK3 = hJNK3 (Homo sapiens, UniProt P53779); assay: hJNK3 | IC50; conditions: read-out: hJNK3 | IC50
hJNK3, sequence (P53779 whole entry, looked up): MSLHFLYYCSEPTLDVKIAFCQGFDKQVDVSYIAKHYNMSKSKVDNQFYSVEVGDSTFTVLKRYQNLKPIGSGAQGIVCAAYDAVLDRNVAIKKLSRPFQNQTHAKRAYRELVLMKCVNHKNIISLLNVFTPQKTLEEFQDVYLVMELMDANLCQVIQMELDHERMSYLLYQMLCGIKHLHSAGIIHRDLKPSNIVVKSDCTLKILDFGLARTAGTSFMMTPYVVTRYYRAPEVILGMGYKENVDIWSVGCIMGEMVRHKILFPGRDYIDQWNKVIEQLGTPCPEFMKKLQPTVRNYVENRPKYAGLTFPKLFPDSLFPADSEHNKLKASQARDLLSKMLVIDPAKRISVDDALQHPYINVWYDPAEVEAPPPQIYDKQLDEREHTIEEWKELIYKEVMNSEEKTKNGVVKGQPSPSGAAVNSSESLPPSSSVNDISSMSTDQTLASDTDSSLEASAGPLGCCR
Description: as §1
Head of the field: hJNK3 | IC50
as §2, §3
Where the first naming reader finds the target: head: hJNK3 | IC50

[1] = system: Endotoxin-Induced Uveitis (EIU) model in rats; assay: Action duration in endotoxin-induced uveitis (EIU), clinical scoring and PMN cells quantification; assay type: in vivo, rat; conditions: 2 mg/kg i.v. immediately before EIU induction
Description: […] (18) female Lewis rats (36 eyes) were randomly divided into 6 groups of 3 animals each. EIU was induced by a single footpad injection of 100 µl sterile pyrogen-free saline containing 200 µg of LPS (Lipopolysaccharides from Salmonella typhimurium, Sigma-Aldrich, France)(2 mg/ml).
Animals were treated 48 hours, 1 week, 2 weeks or 4 weeks before EIU induction by intravenous injection of the JNK inhibitor according to SEQ ID NO: 172 (“XG-104”) at a single dose of 1 mg/kg (dose volume 1 ml/kg) in the tail vein. Dexamethasone 2 mg/kg or vehicle (NaCl 0.9%) were injected intravenously immediately before EIU induction.
The effect of the JNK inhibitor according to SEQ ID NO: 172 (“XG-104”) on EIU was evaluated using clinical scoring and PMN cells quantification 24 hours after induction. Ocular examinations were performed by slit lamp at 24 hours i.e. at the clinical peak of the disease in this model. The intensity of clinical ocular inflammation was scored on a scale from 0 to 5 for each eye: • Grade 0: no inflammation, • Grade 1: presence of a minimal iris and conjunctival vasodilatation but without the observation of flare or cells in the anterior chamber (AC), • Grade 2: presence of moderate iris and conjunctival vessel dilation but without evident flare or cells in the AC, • Grade 3: presence of intense iris vessels dilation, flare and less than 10 cells per slit lamp, field in the AC, • Grade 4: presence of more severe clinical signs than grade 3, with more than 10 cells in the AC with or without the formation of a hypopyon, • Grade 5: presence of intense inflammatory reaction, fibrin formation in the AC and total seclusion of the pupil.
For histology, eighteen eyeballs (one per animal) were collected and fixed for 1 h at room temperature in phosphate buffered saline (PBS) containing 4% paraformaldehyde before being rinsed overnight in PBS. The next day, samples were embedded in optimal cutting temperature (OTC) compound (Tissue-Tek®, Sakura Finetek, Zoeterwoude, Netherland) and the optic nerve level using a cryostat (Leica CM 3050S, France) and mounted on super-frost slides for histology. After nuclei staining with DAPI (Sigma-Aldrich, France), sections were mounted in PBS/Glycerol (1/1) and observed by fluorescence photomicroscopy (FXA Microphot, Nikon, USA). Digitized micrographs were obtained usinga digital camera (Spot, BFI Optilas, France). PMN cells identified by the shape of their nuclei stained with DAPI, were quantified on histological sections. The analysis was performed with 2 different sections per eye at the optic nerve head level.
Twenty-four hours after LPS induction, clinical scores for the vehicle-treated rats were 4.6±0.2 (mean±SEM, n=8). Reduction was calculated as (grade in vehicle-treated eye—grade in test item treated eye)/(grade in vehicle-treated eye). A significant reduction (*p<0.05, **p<0.01) in the severity of the ocular inflammation was detected 24 hours after induction and intravenous treatment with the JNK inhibitor according to SEQ ID NO: 172 (“XG-104”) (1 mg/kg) administered 48 hours before EIU induction (mean score: 2.8±0.3), corresponding to a 40% (**) decrease of EIU scores compared with the score observed in vehicle group, 24 hours after induction and intravenous treatment with the JNK inhibitor according to SEQ ID NO: 172 (“XG-104”) (1 mg/kg) administered 1 week before EIU induction (mean score: 3.3±0.3), corresponding to a 27% (*) decrease of EIU scores compared with the score observed in vehicle group, and 24 hours after induction and intravenous treatment with the JNK inhibitor according to SEQ ID NO: 172 (“XG-104”) (1 mg/kg) administered 2 weeks before EIU induction (mean score: 3.0±0.2), corresponding to a 35% (**) decrease of EIU scores compared with the score observed in vehicle group. […]

[2] = system: established type II collagen arthritis in rats; assay: Chronic established type II collagen arthritis, daily IV 14 days; assay type: in vivo, rat
Description: Rat collagen arthritis is an experimental model of polyarthritis that has been widely used for preclinical testing of numerous anti-arthritic agents that are either under preclinical or clinical investigation or are currently used as therapeutics in this disease. […] Animals were terminated on arthritis day 14.

[3] = system: endotoxins-induced uveitis albino rat model; assay: Endotoxins-induced uveitis (EIU), single intravenous injection, clinical scoring; assay type: in vivo; design: key to clinical score (mean±SEM) / clinical score, median: clinical ocular inflammation score per eye, 0 to 4; conditions: sub-conjunctival, 20 Dg/eye; 24 h after LPS
Description: The anti-inflammatory potency of the JNK inhibitor of SEQ ID NO: 172 was tested in albino rats following intravenous administration (EIU/LPS model). The aim of this study was to determine the effects of single intravenous injections of SEQ ID NO: 172 (0.015, 0.18, and 1.80 mg/kg) on the inflammatory response in an endotoxins-induced uveitis albino rat model and to compare these affects to those obtained with prior art JNK inhibitor of SEQ ID NO: 197 (2 mg/kg). As a further control served phosphate sodic dexamethasone (“reference”) and vehicle (0.9% NaCl).
Sixty (60) male Lewis rats were randomly divided into six (6) groups often (10) animals each. 0.9% NaCl (vehicle, “control”), SEQ ID NO: 197 at 2 mg/kg and SEQ ID NO: 172 at three concentrations (1.80 mg/kg, 0.18 mg/kg and 0.015 mg/kg) were administered by intravenous injection just before EIU induction (on the day of induction). Accordingly, phosphate sodic dexamethasone (20 Dg/eye, 5 μl; “reference”) was administered by a single sub-conjunctival injection in both eyes just before EIU induction (on the day of induction). EIU was induced by footpad injection of lipopolysaccharide (LPS, 1 mg/kg). 24 hours after LPS injection, inflammatory response was evaluated by clinical scoring.
The intensity of clinical ocular inflammation was scored on a scale from 0 to 4 for each eye: […]

[4] = system: acute CYP-induced cystitis in female Sprague-Dawley rats; assay: Cyclophosphamide-induced acute cystitis, intravesical treatment, visceral pain and bladder inflammation; assay type: in vivo, rat; conditions: 50 mg/mL, i.ves.
Description: This preclinical model is well-used to test therapeutic approaches for the treatment of interstitial cystitis/painful bladder syndrome (IC/PBS).
Animals were acclimatized to the laboratory conditions for at least 3 days before the start of any experiments. The animals were allocated to the following four experimental groups (n=10 animals per group):
To induce acute cystitis, a single i.p. injection of CYP at a dose of 150 mg/kg in a final volume of 5 mL/kg was performed. Control rats received physiological saline under the same experimental conditions as CYP (final volume of 5 mL/kg, i.p.).
On the day of each experiment, weight of rats was recorded.
Standardized conditions including fixed time-of-day (a.m. to minimize the potential circadian variations in the behaviours responses) and single-experimenter testing of all animals were applied to minimize variability behavior-based pain testing. Visceral pain including allodynia and hyperalgesia was evaluated by applying to the lower abdomen, close to the urinary bladder, a set of 8 calibrated von Frey filaments of increasing forces (1, 2, 4, 6, 8, 10, 26 and 60 g) with an interstimulus interval of 5 seconds. Prior testing, the abdominal area designed for mechanical stimulation of each animal was shaved. Animals were then placed on a raised wire mesh floor under individual transparent Plexiglas box and acclimatized for at least 30 minutes before starting the von Frey test. Filaments were then applied 1-2 seconds through the mesh floor with enough strength to cause the filament to slightly bend. Each filament was tested 3 times. Care was taken to stimulate different areas within the lower abdominal region in the vicinity of the urinary bladder to avoid desensitization.
Nociceptive behaviors were scored for each animal and each filament as follows:
The study design is schematically shown in FIG. 50 A. Birefly, acute cystitis was induced by CYP injection (i.p.) at Do (as described above).
Urinary bladders were rapidly collected and cleaned from lipoid tissue. Urinary bladders were weighed, cut at the bladder neck as well as oedema and haemorrhage scoring was performed (see table below). Finally, wall thickness was measured using a digital caliper by placing the bladder wall between the two outside jaws.

[5] = vs disease controls, IV QD d1-14, Dex 0.05 mg/kg, SEQ ID NO: 172 up to 5 mg/kg

T1 sequence (P45983 whole entry, looked up): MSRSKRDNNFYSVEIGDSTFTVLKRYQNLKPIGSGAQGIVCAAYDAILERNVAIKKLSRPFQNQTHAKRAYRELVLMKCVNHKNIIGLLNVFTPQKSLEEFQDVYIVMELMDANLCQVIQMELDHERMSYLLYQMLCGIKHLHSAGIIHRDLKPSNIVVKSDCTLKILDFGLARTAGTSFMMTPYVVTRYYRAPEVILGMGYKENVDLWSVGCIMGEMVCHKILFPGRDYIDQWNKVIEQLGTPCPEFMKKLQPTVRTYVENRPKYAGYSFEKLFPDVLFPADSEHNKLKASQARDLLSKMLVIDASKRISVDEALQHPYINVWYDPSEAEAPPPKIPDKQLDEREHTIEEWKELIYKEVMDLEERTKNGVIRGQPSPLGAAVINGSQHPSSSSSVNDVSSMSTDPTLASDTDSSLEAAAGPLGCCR

Question: Which IC50 (hJNK1) does the source give for CC(C)C[C@@H](NC(=O)[C@@H](Cc1ccccc1)NC(=O)[C@H]1CCCN1C(=O)[C@@H](CCC(N)=O)NC(=O)[C@H](NC(=O)[C@H]1CCCN1C(=O)[C@@H](CCCNC(=N)N)NC(=O)[C@@H](CO)NC(=O)[C@@H](CCC(N)=O)NC(=O)[C@H](N)CC(=O)O)C(C)C)C(=O)N[C@H](CC(N)=O)C(=O)N[C@H](CC(C)C)C(=O)N[C@@H](C(=O)N[C@@H](C(=O)N1CCC[C@@H]1C(=O)N[C@H](CCCNC(=N)N)C(=O)N[C@H](CCCCN)C(=O)N1CCC[C@@H]1C(=O)N[C@H](CCCNC(=N)N)C(=O)N1CCC[C@@H]1C(=O)N1CCC[C@@H]1C(=O)N[C@H](CCCNC(=N)N)C(=O)N[C@H](CCCNC(=N)N)C(=O)N[C@H](CCCNC(=N)N)C(=O)N[C@H](CCC(N)=O)C(=O)N[C@H](CCCNC(=N)N)C(=O)N[C@H](CCCNC(=N)N)C(=O)N[C@H](CCCCN)C(=O)N[C@H](CCCCN)C(=O)N[C@H](CCCNC(=N)N)C(=O)NCC(N)=O)[C@H](C)O)[C@H](C)O [SEQ ID NO: 197, dqsrpvqpflnlttprkprpprrrqrrkkrg] (H-[dD][dQ][dS][dR][dP][dV][dQ][dP][dF][dL][dN][dL][dT][dT][dP][dR][dK][dP][dR][dP][dP][dR][dR][dR][dQ][dR][dR][dK][dK][dR]G-NH2) here?
Answer: 24400 nM

Question: What about the IC50 (hJNK2) of the same compound?
Answer: 802 nM

Question: What about the IC50 (hJNK3) of the same compound?
Answer: 1290 nM

Question: For C[C@@H]1C[C@H]2[C@@H]3CCC4=CC(=O)C=C[C@]4(C)[C@@]3(F)[C@@H](O)C[C@]2(C)[C@@]1(O)C(=O)CO [dexamethasone, reference compound], which “clinical score (mean±SEM)” value [1] is on record?
Answer: 1.4±0.2

Question: And the “decrease of clinical scores vs vehicle group” value [1]?
Answer: 69%

Question: What about the “ankle diameter AUC, reduction toward normal” value ([2]; 0.05 mg/kg IV QD d1-14) of the same compound?
Answer: 97%

Question: What about the “inhibition of body weight loss vs disease controls” value ([2]; 0.05 mg/kg IV QD d1-14) of the same compound?
Answer: 21%

Question: And the “final paw weights, reduction toward normal” value ([2]; Dex 0.05 mg/kg IV QD d1-14)?
Answer: 114%

Question: What about the “spleen weights relative to body weight” value [2, 5] of the same compound?
Answer: significantly (p<0.05 by ANOVA) reduced

Question: What about the “thymus weights relative to body weight” value [2, 5] of the same compound?
Answer: significantly (p<0.05 by ANOVA) reduced

Question: And the “clinical score (mean±SEM)” value [3]?
Answer: 0.8±0.2

Question: What about the “clinical score, median” value [3] of the same compound?
Answer: 0.5

Question: Which urine observation [4] does the source give for CC(C)Cc1ccc(C(C)C(=O)O)cc1 (stereo not drawn) [ibuprofen, reference compound] here?
Answer: reddish urine was noticed for some animal

Question: What about the “haemorrhage scores vs vehicle” value ([4]; 24 h after CYP) of the same compound?
Answer: no significant change

Question: What about the “nociceptive scores vs vehicle” value ([4]; 24 h after CYP) of the same compound?
Answer: significant decrease

Question: And the “nociceptive threshold vs vehicle” value ([4]; 24 h after CYP)?
Answer: significantly increased

Question: And the “oedema scores vs vehicle” value ([4]; 24 h after CYP)?
Answer: significant decrease

Question: And the “urinary bladder wall thickness vs vehicle” value ([4]; 24 h after CYP)?
Answer: significant decrease
